In patent US20070043104A1, “UII-modulating compounds and their use” (priority 2005, published 2007):
Counter-ions that a name gives are not always drawn.

Target: T1, human urotensin II receptor (Homo sapiens, UniProt Q9UKP6)
T1 construct: expressed in transfected cells; host or cells: NIH3T3 cells
T1 sequence (Q9UKP6 1-389): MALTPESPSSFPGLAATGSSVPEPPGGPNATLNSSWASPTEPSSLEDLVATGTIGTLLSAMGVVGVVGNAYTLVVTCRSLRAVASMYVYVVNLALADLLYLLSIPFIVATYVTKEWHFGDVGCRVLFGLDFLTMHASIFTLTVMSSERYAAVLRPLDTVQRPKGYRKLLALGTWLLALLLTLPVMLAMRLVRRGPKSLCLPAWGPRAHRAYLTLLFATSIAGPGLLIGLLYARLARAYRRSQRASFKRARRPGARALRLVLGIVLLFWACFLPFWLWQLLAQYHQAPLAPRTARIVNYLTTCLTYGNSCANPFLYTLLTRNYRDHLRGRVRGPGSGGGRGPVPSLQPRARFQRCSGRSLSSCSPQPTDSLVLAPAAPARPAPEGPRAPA
Assay: Receptor Selection and Amplification (R-SAT) functional assay, NIH3T3 cells transfected with human urotensin II receptor and β-galactosidase marker
Format: cell-based
Conditions: for EC50 / pEC50: Table 3, negative of the log EC50 in molarity, average ± standard deviation (or range) of determinations, eight doses in triplicate; for Emax: NIH3T3, Table 3, percent activation normalized to the reference ligand assigned 100%, read-out: Efficacy
Method: The functional receptor assay, Receptor Selection and Amplification Technology (R-SAT™), was used (with minor modifications from the procedure described previously (Brann, M. R. U.S. Pat. No. 5,707,798, 1998; Chem. Abstr. 1998, 128, 111548) to screen compounds for efficacy at the UII receptor. The RSAT assay was conducted as described herein.
Briefly, NIH3T3 cells were grown in tissue culture treated rollerbottles to 40-80% confluence in Dulbecco's modified Eagle's medium (DMEM) supplemented with 10% bovine calf serum (Hyclone) and 1% penicillin/streptomycin/glutamine (Invitrogen). Cells were transfected for 12-18 hours with the human urotensin II receptor and the β-galactosidase marker. After transfection, the cells were trypsinized, harvested and frozen in DMEM containing 10% DMSO. Frozen cells were later thawed and tested for a response to a control compound to perform quality control before initiation of pharmacological testing, ensuring the correct pharmacological response and sufficient sensitivity. To initiate the pharmacological assay, cells were thawed rapidly and prepared in DMEM media containing 0.4% calf serum (Hyclone), 30% UltraCulture (Biowhittaker), and 1% penicillin/streptomycin/glutamine (Invitrogen), and then plated at 10,000-40,000 cells per well of a 96½ area plate that contained either the test compounds or reference ligands. Cells were then grown in a humidified atmosphere with 5% ambient CO2 for five days. Media was then removed from the plates and marker gene activity was measured by the addition of the beta-galactosidase substrate ONPG (in PBS with 5% NP-40). The resulting colorimetric reaction was measured in a spectrophotometric plate reader (Titertek Inc.) at […].
pEC50 represents the negative logarithm of the concentration of ligand that caused 50% activation of the basal receptor response. Percent activation was calculated as the difference between the absorbance measurements in the absence of added ligand compared with that in the presence of saturating concentrations of ligand normalized to the absorbance difference for the reference ligand, which was assigned a value of 100%.
Results were determined in R-SAT assays and are expressed as pEC50, the negative of the log EC50 in molarity. Results are the average±standard deviation of 2-X determinations of the EC50 where each compound was tested in eight doses in triplicate.

Compound | EC50 | Efficacy (Table 3, percent activation normalized to the reference ligand assigned 100%, oxalate) | Emax | pEC50
CN(C)CCC(NC(=O)c1ccc(-c2ccccc2)cc1)c1ccc(Cl)cc1.O=C(O)C(=O)O (single isomer, unassigned; (+)) [(+) 5o, (+)-N-[1-(4-Chlorophenyl)-3-dimethylamino-propyl]-4-phenyl-benzamide oxalate] | 12.3 to 27.5 nM | 104-108% |  | 
CN(C)CCC(NC(=O)c1ccc(-c2ccccc2)cc1)c1ccc(Cl)cc1 (single isomer, unassigned; (-)) [(−) 5o, (−)-N-[1-(4-Chlorophenyl)-3-dimethylamino-propyl]-4-phenyl-benzamide oxalate] | 1150 to 1200 nM |  | 112 to 114% | 
CO[C@@H](C(=O)NC(CCN(C)C)c1ccc(Cl)cc1)c1ccccc1 (single isomer, unassigned; (-)) [(−) 5s, oxalate] | 871 nM |  | 165 ± 10% | 
Cc1ccccc1C(=O)OC(CCN(C)C)c1ccc(Cl)cc1.Cl (stereo not shown) [4a, 1-(4-Chlorophenyl)-3-dimethylamino-propyl 2-methyl-benzoate HCl] |  |  | 126 ± 34% | 5.77 ± 0.01
CCc1ccccc1C(=O)OC(CCN(C)C)c1ccc(Cl)cc1.Cl (stereo not shown) [4b, 1-(4-Chlorophenyl)-3-dimethylamino-propyl 2-ethyl-benzoate HCl] |  |  | 128 ± 31% | 5.89 ± 0.05
Cc1ccc(C(=O)OC(CCN(C)C)c2ccc(Cl)cc2)cc1.Cl (stereo not shown) [4c, 1-(4-Chlorophenyl)-3-dimethylamino-propyl 4-methyl-benzoate HCl] |  |  | 56 ± 6% | 5.56 ± 0.01
Cc1cccc(C(=O)OC(CCN(C)C)c2ccc(Cl)cc2)c1C (stereo not shown) [4d, 1-(4-Chlorophenyl)-3-dimethylamino-propyl 2,3-dimethyl-benzoate HCl] | 1260 nM |  | 94 ± 42% | 
COc1cccc(C(=O)OC(CCN(C)C)c2ccc(Cl)cc2)c1C (stereo not shown) [4e, 1-(4-Chlorophenyl)-3-dimethylamino-propyl 3-methoxy-2-methyl-benzoate HCl] | 2090 nM |  | 120 ± 57% | 
Cc1c(Cl)cccc1C(=O)OC(CCN(C)C)c1ccc(Cl)cc1.Cl (stereo not shown) [4f, 1-(4-Chlorophenyl)-3-dimethylamino-propyl 3-chloro-2-methyl-benzoate HCl] |  |  | 118 ± 37% | 5.95 ± 0.05
Cc1cc(Br)ccc1C(=O)OC(CCN(C)C)c1ccc(Cl)cc1.Cl (stereo not shown) [4g, 1-(4-Chlorophenyl)-3-dimethylamino-propyl 4-bromo-2-methyl-benzoate HCl] |  |  | 95 ± 37% | 5.97 ± 0.24
Cc1ccc(C)c(C(=O)OC(CCN(C)C)c2ccc(Cl)cc2)c1.Cl (stereo not shown) [4h, 1-(4-Chlorophenyl)-3-dimethylamino-propyl 2,5-dimethyl-benzoate HCl] |  |  | 86% | 5.73 ± 0.15
Cc1cc(C)c(C(=O)OC(CCN(C)C)c2ccc(Cl)cc2)cc1C.Cl (stereo not shown) [4i, 1-(4-Chlorophenyl)-3-dimethylamino-propyl 2,4,5-trimethyl-benzoate HCl] |  |  | 60 ± 4% | 6.33 ± 0.6
Cc1ccsc1C(=O)OC(CCN(C)C)c1ccc(Cl)cc1.Cl (stereo not shown) [4j, 1-(4-Chlorophenyl)-3-dimethylamino-propyl 3-methyl-thiophene-2-carboxylate HCl] |  |  | 119 ± 44% | 5.60 ± 0.05
CN(C)CCC(OC(=O)c1cccc2ccccc12)c1ccc(Cl)cc1.Cl (stereo not shown) [4k, 1-(4-Chlorophenyl)-3-dimethylamino-propyl naphthalene-1-carboxylate HCl] |  |  | 95 ± 24% | 5.64 ± 0.02
CN(C)CCC(OC(=O)c1ccc2ccccc2c1)c1ccc(Cl)cc1.Cl (stereo not shown) [4l, 1-(4-Chlorophenyl)-3-dimethylamino-propyl naphthalene-2-carboxylate HCl] |  |  | 49 ± 28% | 5.68 ± 0.04
CN(C)CCC(OC(=O)c1ccc(-c2ccccc2)cc1)c1ccc(Cl)cc1.Cl (stereo not shown) [4m, 1-(4-Chlorophenyl)-3-dimethylamino-propyl 4-phenyl-benzoate HCl] |  |  | 53 ± 27% | 6.28 ± 0.14
CN(C)CCC(OC(=O)c1cc2ccccc2n1C)c1ccc(Cl)cc1 (stereo not shown) [4n, 1-(4-Chlorophenyl)-3-dimethylamino-propyl 1-methyl-indole-2-carboxylate HCl] | 1910 nM |  | 104 ± 34% | 
CN(C)CCC(OC(=O)c1cn(C)c2ccccc12)c1ccc(Cl)cc1 (stereo not shown) [4o, 1-(4-Chlorophenyl)-3-dimethylamino-propyl 1-methyl-indole-3-carboxylate HCl] | 1620 nM |  | 115 ± 71% | 
COc1ccc(C(=O)OC(CCN(C)C)c2ccc(Cl)cc2)cc1 (stereo not shown) [4p, 1-(4-Chlorophenyl)-3-dimethylamino-propyl 4-methoxy-benzoate oxalate] | 1550 to 3720 nM |  | 52 to 101% | 
CN(C)CCC(OC(=O)c1ccc(C(F)(F)F)cc1)c1ccc(Cl)cc1 (stereo not shown) [4q, 1-(4-Chlorophenyl)-3-dimethylamino-propyl 4-trifluoromethyl-benzoate oxalate] | 1170 to 2090 nM |  | 36 to 38% | 

The next lines start with the values.

EC50 | Efficacy (Table 3, percent activation normalized to the reference ligand assigned 100%, oxalate) | Emax | pEC50 | Compound
 |  | 158 ± 39% | 5.85 ± 0.01 | CN(C)CCC(NC(=O)c1ccccc1)c1ccc(Cl)cc1.Cl (stereo not shown) [5a, N-[1-(4-Chlorophenyl)-3-dimethylamino-propyl]-benzamide HCl]
 |  | 175 ± 15% | 5.45 ± 0.04 | Cc1ccccc1C(=O)NC(CCN(C)C)c1ccc(Cl)cc1.O=C(O)C(=O)O (stereo not shown) [5b, N-[1-(4-Chlorophenyl)-3-dimethylamino-propyl]-2-methyl-benzamide oxalate]
1020 nM |  | 140 ± 14% |  | CCc1ccccc1C(=O)NC(CCN(C)C)c1ccc(Cl)cc1 (stereo not shown) [5c, N-[1-(4-Chlorophenyl)-3-dimethylamino-propyl]-2-ethyl-benzamide oxalate]
 |  | 148 ± 33% | 5.87 ± 0.2 | COc1ccc(C(=O)NC(CCN(C)C)c2ccc(Cl)cc2)cc1.O=C(O)C(=O)O (stereo not shown) [5d, N-[1-(4-Chlorophenyl)-3-dimethylaminopropyl]-4-methoxy-benzamide oxalate]
 |  | 145 ± 25% | 5.87 ± 0.17 | CN(C)CCC(NC(=O)c1ccc(N(C)C)cc1)c1ccc(Cl)cc1.O=C(O)C(=O)O (stereo not shown) [5e, N-[1-(4-Chlorophenyl)-3-dimethylaminopropyl]-4-dimethylamino-benzamide oxalate]
 |  | 159 ± 1% | 5.44 ± 0.08 | Cc1cccc(C(=O)NC(CCN(C)C)c2ccc(Cl)cc2)c1C.O=C(O)C(=O)O (stereo not shown) [5f, N-[1-(4-Chlorophenyl)-3-dimethylamino-propyl]-2,3-dimethyl-benzamide oxalate]
 |  | 179 ± 11% | 5.37 ± 0.14 | COc1cccc(C(=O)NC(CCN(C)C)c2ccc(Cl)cc2)c1C.O=C(O)C(=O)O (stereo not shown) [5g, N-[1-(4-Chlorophenyl)-3-dimethylamino-propyl]-3-methoxy-2-methyl-benzamide oxalate]
 |  | 142 ± 14% | 5.76 ± 0.13 | Cc1c(Cl)cccc1C(=O)NC(CCN(C)C)c1ccc(Cl)cc1.O=C(O)C(=O)O (stereo not shown) [5h, N-[1-(4-Chlorophenyl)-3-dimethylamino-propyl]-3-chloro-2-methyl-benzamide oxalate]
 |  | 147 ± 29% | 5.81 ± 0.06 | Cc1ccc(C(=O)NC(CCN(C)C)c2ccc(Cl)cc2)c(C)c1.O=C(O)C(=O)O (stereo not shown) [5i, N-[1-(4-Chlorophenyl)-3′-dimethylamino-propyl]-2,4-dimethyl-benzamide oxalate]
 |  | 164 ± 20% | 5.54 ± 0.04 | Cc1ccc(C)c(C(=O)NC(CCN(C)C)c2ccc(Cl)cc2)c1.O=C(O)C(=O)O (stereo not shown) [5j, N-[1-(4-Chlorophenyl)-3-dimethylamino-propyl]-2,5-dimethyl-benzamide oxalate]
 |  | 105 ± 4% | 5.29 ± 0.09 | Cc1cccc(Cl)c1C(=O)NC(CCN(C)C)c1ccc(Cl)cc1.O=C(O)C(=O)O (stereo not shown) [5k, N-[1-(4-Chlorophenyl)-3-dimethylamino-propyl]-6-chloro-2-methyl-benzamide oxalate]
 |  | 148 ± 32% | 5.67 ± 0.17 | CN(C)CCC(NC(=O)c1ccc2c(c1)OCO2)c1ccc(Cl)cc1.O=C(O)C(=O)O (stereo not shown) [5l, N-(1-(4-chlorophenyl)-3-(dimethylamino)propyl)benzo [d][1,3]dioxole-5-carboxamide oxalate]
